What was measured:
[1] = test system: Akt1, Akt2 and Akt3; test: Akt kinase assays (HTRF, GSK-derived biotinylated peptide substrate); format: biochemical, human; settings: as characterised in the figure legends
Description: Activated AKT isoforms and pleckstrin homology domain deletion constructs were assayed utilizing a GSK-derived biotinylated peptide substrate. The extent of peptide phosphorylation was determined by Homogeneous Time Resolved Fluorescence (HTRF) using a lanthamide chelate (Lance)-coupled monoclonal antibody specific for the phosphopeptide in combination with a streptavidin-linked allophycocyanin (SA-APC) fluorophore which will bind to the biotin moiety on the peptide. When the Lance and APC are in proximity (i.e. bound to the same phosphopeptide molecule), a non-radiative energy transfer takes place from the Lance to the APC, followed by emission of light from APC at 665 nm.
The reaction is assembled by adding 16 TL of the ATP/MgCl2 working solution to the appropriate wells of a 96-well microtiter plate. Inhibitor or vehicle (1.0 Tl) is added followed by 10 Tl of peptide working solution. The reaction is started by adding 13 Tl of the enzyme working solution and mixing. The reaction is allowed to proceed for 50 min and then stopped by the addition of 60 Tl HTRF quench buffer. The stopped reactions were incubated at room temperature for at least 30 min and then read on the Discovery instrument.

[2] = test system: MCF7 cells; test: Caspase 3 activation apoptosis assay in MCF7 cells; format: cell-based, human; settings: co-treatment with Camptothecin, FIG. 3
Description: (§1) The herein disclosed inhibitors were evaluated as to the ability to increase cell death. Inhibitors of Akt and inhibitors of Akt and a protein kinase were assessed alone and in combination to determine the effect on caspase 3 activation.
(§2) Apoptosis Assay: Caspase 3 Activation
(§3) Cells were seeded in 96 well plates at concentrations ranging from 2×10^3 to 1×10^4 cells per well in their respective growth media. For anchorage independent assays (spheroids) cells were plated in 96 well plates that had been coated with poly-heme(poly 2-hydroxyethylmethacrylate [Sigma] 10 mg/ml in 95% ethanol). 72 hours later caspase 3 assays were set up as follows:
(§4) a. For standard combination assays, compounds were added at respective concentrations indicated and plates incubated at 37° C. in a CO2 incubator for 18 hours. For standard combination assays utilizing treatment with camptothecin, compounds and camptothecin were added at the same time at the respective concentrations indicated.
(§5) b. For combinations involving addition of the death receptor ligand TRAIL/Apo2L (Research Diagnostics) compounds were added for 1.5 hours prior to addition of TRAIL and plates incubated an additional 3 to 4 hours post TRAIL addition. In the case of the time course, plates were incubated for 2, 3, 4, 5, 6 and 7 hrs with Trail ligand before ending the assay. […]

[3] = test system: MDA-MB468 cells; test: Caspase 3 activation apoptosis assay in MDA-MB468 cells; format: cell-based, human; settings: FIG. 6 (a)
Description: as §1, §2, §3, §4, §5

[4] = test system: LnCaP/Akt3 cell line; test: Caspase 3 activation apoptosis assay in LnCaP/Akt3 cells; format: cell-based, human; settings: FIG. 4 (b)
Description: as §1, §2, §3, §4, §5

[5] = test system: LnCaP cells; test: Caspase 3 activation apoptosis assay in LnCaP cells; format: cell-based, human
Description: as §1, §2, §3, §4, §5

O=c1[nH]c2ccccc2n1C1CCN(Cc2ccc(-c3nc4cc5nc[nH]c5cc4nc3-c3ccccc3)cc2)CC1 [Compound 12-5, 1-{1-[4-(7-Phenyl-1H-imidazo[4,5-g]quinoxalin-6-yl)benzyl]piperidin-4-yl}-1,3-dihydro-2H-benzimidazol-2-one]
Akt isoform selectivity [1]: selective Akt1 and Akt2 inhibitor
fold increase in Caspase 3 activation over Camptothecin alone [2]: 5.8 fold

CN(C)CC(C)(C)CNc1nn2c(-c3ccccc3)nnc2cc1C1CCC1 [Compound 1, N′-(7-Cyclobutyl-3-phenyl-[1,2,4]triazolo[4,3-b]pyridazin-6-yl)-2,2,N,N-tetramethyl-propane-1,3-diamine]
Akt isoform selectivity [1]: selective Akt1 inhibitor
Caspase 3 activity in the presence of Trail [3]: increase in Caspase 3 activity
Caspase 3 activity in the presence of Trail [4]: increase in Caspase 3 activity
Caspase 3 activity in the presence of Trail ([5]; FIG. 4 (a)): increase in Caspase 3 activity

NC(=O)c1[nH]c2ccc(Br)cc2c1S(=O)(=O)N1CCOCC1 [Compound A]
fold increase in Caspase 3 activation over Camptothecin alone [2]: 8.7 fold
fold increase in Caspase 3 activation over Trail alone ([5]; + TRAIL ligand, FIG. 1): 1.2 fold

From patent US20040102360A1, “Combination therapy” (priority 2002, published 2004)
